In brackets after ≈: the same amount, converted by molar mass.
Columns and labels:
[1] = system: Mycobacterium tuberculosis; test: Antimycobacterial activity against Mycobacterium tuberculosis H37Rv ATCC 27294 assessed as inhibition of bacterial growth measured after 5 days by microplate alamar blue assay; type: functional; conditions: H37Rv ATCC 27294, 120 h, time 5 day
[2] = Selectivity index, ratio of IC50 for African green monkey Vero cells measured after 72 hrs by MTT assay to MIC for antimycobacterial activity against Mycobacterium tuberculosis H37Rv ATCC 27294 assessed as inhibition of bacterial growth measured after 5 days by microplate alamar blue assay; type: toxicity; conditions: read-out: Selectivity Index
Vero = test: Cytotoxicity against African green monkey Vero cells assessed as reduction in cell viability measured after 72 hrs by MTT assay; type: cell-based; conditions: Chlorocebus sabaeus
J774.A1 = test: Cytotoxicity against mouse J774.A1 cells assessed as reduction in cell viability measured after 72 hrs by MTT assay; type: cell-based; conditions: J774.A1, 72 h

For `Cc1c(C(=O)OCc2ccccc2)[n+]([O-])c2cc(F)c(F)cc2[n+]1[O-]`, the MIC [1] was 0.5 mg/L (≈ 1.44 µM), the selectivity ratio at 72 hrs [2] was 38.3 and the IC50 (Vero) was 55.3 µM.

For `CCCC(=O)c1c(C)[n+]([O-])c2ccccc2[n+]1[O-]`, the MIC [1] was 64 mg/L (≈ 260 µM).

Compound `CCOC(=O)c1c(C(F)(F)F)[n+]([O-])c2cc(N3CCNCC3)c(F)cc2[n+]1[O-]` has an MIC [1] of 0.5 mg/L (≈ 1.24 µM), a selectivity ratio at 72 hrs [2] of 25.3 and an IC50 (Vero) of 31.3 µM.

In the case of `CC(=O)c1c(C)[n+]([O-])c2ccccc2[n+]1[O-]` [MEQUINDOX], the MIC [1] is reported as 8 mg/L (≈ 36.7 µM).

`CC(=O)c1c(C)[n+]([O-])c2cc(N3CCNCC3)c(F)cc2[n+]1[O-]` gave an MIC [1] of 4 mg/L (≈ 12.5 µM).

Compound `CC(=O)c1c(C)[n+]([O-])c2cc(N3CCNCC3)ccc2[n+]1[O-]` has an MIC [1] of 64 mg/L (≈ 212 µM).

Compound `CCOC(=O)c1c(C)[n+]([O-])c2cc(F)c(F)cc2[n+]1[O-]` has an MIC [1] of 1 mg/L (≈ 3.52 µM), a selectivity ratio at 72 hrs [2] of 8.7 and an IC50 (Vero) of 30.6 µM.

Compound `CC(=O)c1c(C)[n+]([O-])c2cc(F)c(F)cc2[n+]1[O-]` has an MIC [1] of 2 mg/L (≈ 7.87 µM), a selectivity ratio at 72 hrs [2] of 2.8 and an IC50 (Vero) of 22.4 µM.

With `CCOC(=O)c1c(C)[n+]([O-])c2cc(-n3cncn3)c(F)cc2[n+]1[O-]` the MIC [1] was 0.125 mg/L (≈ 0.375 µM), the IC50 (J774.A1) was 77.7 µM and the selectivity ratio at 72 hrs [2] was 412. For the same compound, the IC50 (Vero) was 155 µM.

In the case of `CCOC(=O)c1c(C(F)(F)F)[n+]([O-])c2cc(-n3cncn3)c(F)cc2[n+]1[O-]`, the MIC [1] is reported as 0.25 mg/L (≈ 0.646 µM), the selectivity ratio at 72 hrs [2] is reported as 54.8 and the IC50 (Vero) is reported as 35.4 µM.

For `CCOC(=O)c1c(C)[n+]([O-])c2cc(N3CCCCC3)c(F)cc2[n+]1[O-]`, the MIC [1] was 32 mg/L (≈ 91.6 µM).

Work on `CC(=O)c1c(C)[n+]([O-])c2cc(-n3ccnc3)c(F)cc2[n+]1[O-]` yielded an MIC [1] of 0.5 mg/L (≈ 1.65 µM), an IC50 (J774.A1) of 77.7 µM and a selectivity ratio at 72 hrs [2] of 46.4. The IC50 (Vero) was 95.7 µM.

For `CCOC(=O)c1c(C)[n+]([O-])c2cc(N3CCOCC3)c(F)cc2[n+]1[O-]`, the MIC [1] was 64 mg/L (≈ 182 µM).

Work on `CCOC(=O)c1c(C)[n+]([O-])c2cc(N3CCN(C)CC3)c(F)cc2[n+]1[O-]` yielded an MIC [1] of 8 mg/L (≈ 22 µM).

`CCOC(=O)c1c(C(F)(F)F)[n+]([O-])c2cc(-n3ccnc3)c(F)cc2[n+]1[O-]` gave an MIC [1] of 0.25 mg/L (≈ 0.647 µM), a selectivity ratio at 72 hrs [2] of 30 and an IC50 (Vero) of 19.4 µM.

Reference: ChEMBL document CHEMBL4840311, “Discovery of novel nitrogenous heterocyclic-containing quinoxaline-1,4-di-N-oxides as potent activator of autophagy in M.tb-infected macrophages” (Eur J Med Chem, 2021)
